Data: patent US6066628A, “Non-iron metalloporphyrins and methods of use” (Emory University, priority 1998, dated 2000)
≈ marks a conversion by molar mass, not a printed value. Where “and” joins values, the source holds several entries; their conditions need not be identical. Equal entries are not always repeated. Where two headings read alike, the source gives them in different places.

Columns and labels:
[1] = system: bacteria; type: cell-based; conditions: for MICs: porphyrins without Ga ions, all tested bacteria
[2] = system: Y. enterocolitica; test: microbe, parasite or virus in culture; type: cell-based
[3] = system: M. smegmatis; type: cell-based, Mycobacterium smegmatis; conditions: for MIC / Minimal inhibitory concentration (MIC): M. smegmatis LR222; for MIC: dark (Table 10); for Minimal inhibitory concentration (MIC): LB + Tween 80 (Table 2); for antibacterial activity: M. smegmatis
[4] = system: S. aureus; type: cell-based, Staphylococcus aureus; conditions: for MIC: S. aureus IR2419, dark (Table 10); for Minimal inhibitory concentration (MIC): methicillin-resistant S. aureus IR219, Nutrient broth (Table 2); for antibacterial activity: S. aureus
[5] = system: M. smegmatis; test: Minimal bactericidal concentration; type: cell-based, Mycobacterium smegmatis; conditions: reduces plating efficiency more than 99.9%, minimal exposure to light; for MBC: Mycolicibacterium smegmatis
[6] = system: S. aureus; test: Minimal bactericidal concentration; type: cell-based, Staphylococcus aureus; conditions: reduces plating efficiency more than 99.9%, minimal exposure to light; for MBC: Staphylococcus aureus
Procedure: Minimal bactericidal concentrations (MBCs) were determined essentially the same way as MICs except that the amount of killing with a particular concentration of porphyrin derivative was determined by plating on solid microbiological media (LB plates or LB+Tween 80). Media were solidified by the incorporation of 1.5% agar (Difco Laboratories). Concentrations of porphyrins that produced 99.9% reduction in bacterial counts were considered bactericidal [Hindler et al. (1994) supra].
MBC were determined by plating bacterial cultures that have been incubate
in the presence of MPs at concentrations higher than MIC. MBC was defined
as a concentration of a particular MP which reduces the plating efficienc
more than 99.9%. Experiments were done with minimal exposure to light
(addition of porphyrins waa done in the presence of artifical light).

[7] = system: Y. enterocolitica; test: Minimal bactericidal concentration; type: cell-based; conditions: reduces plating efficiency more than 99.9%, minimal exposure to light; for MBC: Yersinia enterocolitica
[8] = system: Y. enterocolitica; test: Competition of heme/protoporphyrin IX with Ga-PPIX antibacterial activity
[9] = system: M. smegmatis; test: as above; conditions: for antagonism of Ga-PPIX antibacterial activity: heme 10- to 100-fold molar excess, protoporphyrin IX 20- and 100-fold excess
[10] = system: S. aureus; test: as above; type: cell-based, Staphylococcus aureus; conditions: for antagonism of Ga-PPIX antibacterial activity: heme 10- to 100-fold molar excess, protoporphyrin IX 100-fold excess
[11] = Mycolicibacterium smegmatis, read-out: MIC
[12] = Staphylococcus aureus, read-out: MIC
[13] = +1 μg/ml Ga-PPIX, competitor 1 μg/ml
[14] = +1 μg/ml Ga-PPIX, competitor 10 μg/ml
[15] = +1 μg/ml Ga-PPIX, competitor 20 μg/ml
[16] = +1 μg/ml Ga-PPIX, competitor 100 μg/ml
[17] = -1 μg/ml Ga-PPIX (without Ga-PPIX), 1 μg/ml
[18] = -1 μg/ml Ga-PPIX (without Ga-PPIX), 10 μg/ml
[19] = -1 μg/ml Ga-PPIX (without Ga-PPIX), 20 μg/ml
[20] = -1 μg/ml Ga-PPIX (without Ga-PPIX), 100 μg/ml
[21] = iron restriction / 2,2'-dipyridyl

## Gallium (+3) hematoporphyrin IX
[1]
  antibacterial activity: active against all microorganisms challenged

## C1=Cc2cc3ccc(cc4nc(cc5ccc(cc1n2)[nH]5)C=C4)[nH]3 [POR, porphine, reference compound]
[2]; Yersinia enterocolitica, read-out: MIC
  MIC: 30 µg/mL (≈ 96.7 µM)
[2]; in µg/mL
  MIC: 20
[3]; [11]
  MIC: > 40 µg/mL
[1]
  MICs: very large MICs
[4]; [12]
  MIC: 50 µg/mL (≈ 161 µM)

## C=CC1=C(C)c2cc3[n-]c(cc4[n-]c(cc5nc(cc1n2)C(C)=C5C=C)c(C)c4CCC(=O)O)c(CCC(=O)O)c3C.[Cu+2] [Cu-PPIX]
[2]
  Minimal inhibitory concentration (MIC): 20
[3]
  Minimal inhibitory concentration (MIC): 20 µg/mL
[4]
  Minimal inhibitory concentration (MIC): > 40 µg/mL

## C=CC1=C(C)c2cc3[n-]c(cc4nc(cc5[n-]c(cc1n2)c(C)c5CCC(=O)O)C(CCC(=O)O)=C4C)c(C)c3C=C.[Pt+2] [Pt-PPIX, Platinum protoporphyrin IX]
[2]
  Minimal inhibitory concentration (MIC): 30
[3]
  Minimal inhibitory concentration (MIC): 20 µg/mL
[4]
  Minimal inhibitory concentration (MIC): 40 µg/mL

## CCC1=C(CC)c2cc3[nH]c(cc4nc(cc5[nH]c(cc1n2)c(CC)c5CC)C(CC)=C4CC)c(CC)c3CC.[Ga] [GA-OEP]
[5]
  Minimal bactericidal concentration (MBC): 10
[2]; in µg/mL
  MIC: 20
[3]
  MIC: 5 µg/mL
[6]
  Minimal bactericidal concentration (MBC): 5
[4]
  MIC: 10 µg/mL
[7]
  Minimal bactericidal concentration (MBC): > 20

## C1=CC2=NC1=Cc1ccc3[n]1[Ga][n]1c(ccc1=CC1=NC(=C3)C=C1)=C2 [GA-POR]
[2]; in µg/mL
  MIC: 20
[3]
  MIC: 5 µg/mL
[4]
  MIC: 50 µg/mL

## C=CC1=C(C)c2cc3[nH]c(cc4nc(cc5[nH]c(cc1n2)c(C)c5CCC(=O)O)C(CCC(=O)O)=C4C)c(C)c3C=C [PPIX, protoporphyrin IX]
[5]
  MBC: > 20 µg/mL
[8]; [13]
  growth: -
[8]; [14]
  growth: -
[8]; [15]
  growth: -
[8]; [16]
  growth: -
[8]; [17]
  growth: +
[8]; [18]
  growth: +
[8]; [19]
  growth: +
[8]; [20]
  growth: -
[8]; Y. enterocolitica fur mutant
  antagonism of Ga-PPIX antibacterial activity: not able to antagonize
[3]; [11]
  MIC: > 40 µg/mL
[9]; [13]
  growth: -
[9]; [15]
  growth: +
[9]; [16]
  growth: +
[9]; [17]
  growth: +
[9]; [18]
  growth: +
[9]; [19]
  growth: +
[9]; [20]
  growth: +
[9]
  antagonism of Ga-PPIX antibacterial activity: antagonized
[6]
  MBC: > 40 µg/mL
[1]
  MICs: very large MICs
[4]; [12]
  MIC: 50 µg/mL (≈ 88.9 µM)
[10]; [13]
  growth: -
[10]; [14]
  growth: -
[10]; [15]
  growth: -
[10]; [16]
  growth: +
[10]; [17]
  growth: +
[10]; [18]
  growth: +
[10]; [19]
  growth: +
[10]; [20]
  growth: +
[10]
  antagonism of Ga-PPIX antibacterial activity: some antagonizing effect
[7]
  MBC: > 40 µg/mL

## CCC1=C(C)C2=Cc3c(C)c(CCC(=O)O)c4[n]3[Ga][n]3c(c(C)c(CC)c3=CC3=NC(=C4)C(CCC(=O)O)=C3C)=CC1=N2 [GA-MP-IX]
[5]
  Minimal bactericidal concentration (MBC): 10
[2]; in µg/mL
  MIC: 2.5 and 5
[3]
  MIC: 0.4 µg/mL
[6]
  Minimal bactericidal concentration (MBC): > 13
[4]
  MIC: 1.6 µg/mL
[7]
  Minimal bactericidal concentration (MBC): 5

## C=CC1=C(C)C2=Cc3c(C=C)c(C)c4[n]3[Gd]([Cl])[n]3c(c(C)c(CCC(=O)O)c3=CC3=NC(=C4)C(C)=C3CCC(=O)O)=CC1=N2 [Gd-PPIX, Gadolinium protoporphyrin IX]
[7]
  Minimal bactericidal concentration (MBC): 10

## CCC1=C(C)c2cc3[nH]c(cc4nc(cc5[nH]c(cc1n2)c(C)c5CCC(=O)O)C(CCC(=O)O)=C4C)c(C)c3CC [MP-IX, mesoporphyrin IX, reference compound]
[5]
  MBC: > 40 µg/mL
[3]
  antibacterial activity: largely inactive
[3]; [11]
  MIC: > 40 µg/mL
[6]
  MBC: > 13 µg/mL
[4]
  antibacterial activity: largely inactive
[4]; [12]
  MIC: 20 µg/mL (≈ 35.3 µM)
[7]
  MBC: > 10 µg/mL

## C=CC1=C(C)c2cc3[n-]c(cc4[n-]c(cc5nc(cc1n2)C(C)=C5C=C)c(C)c4CCC(=O)O)c(CCC(=O)O)c3C.[Fe+2] [Fe-PPIX]
[2]
  Minimal inhibitory concentration (MIC): > 40
[8]; [13]
  growth: -
[8]; [14]
  growth: +
[8]; [15]
  growth: +
[8]; [16]
  growth: +
[8]; [17]
  growth: +
[8]; [18]
  growth: +
[8]; [19]
  growth: +
[8]; [20]
  growth: +
[3]
  Minimal inhibitory concentration (MIC): > 40 µg/mL
[9]; [13]
  growth: -
[9]; [14]
  growth: -
[9]; [15]
  growth: -
[9]; [16]
  growth: -
[9]; [17]
  growth: +
[9]; [18]
  growth: +
[9]; [19]
  growth: +
[9]; [20]
  growth: +
[9]
  antagonism of Ga-PPIX antibacterial activity: did not antagonize
[4]
  Minimal inhibitory concentration (MIC): > 40 µg/mL
[10]; [13]
  growth: -
[10]; [14]
  growth: -
[10]; [15]
  growth: -
[10]; [16]
  growth: -
[10]; [17]
  growth: +
[10]; [18]
  growth: +
[10]; [19]
  growth: +
[10]; [20]
  growth: +
[10]
  antagonism of Ga-PPIX antibacterial activity: did not antagonize
[10]; heme dissolved in 20 mM NaOH
  toxic effect on S. aureus: not observed

## C=Cc1c(C)c2cc3nc(c(CC(=O)O)c4[nH]c(cc5nc(cc1[nH]2)C(C)=C5CC)c(C)c4C(=O)O)[C@@H](CCC(=O)O)[C@@H]3C [Ce6, chlorin e6, reference compound]
[2]
  MIC: 20 and > 10
[3]
  MIC: 20 µg/mL (≈ 33.5 µM)
[1]
  MICs: very large MICs
[4]
  MIC: 20 µg/mL (≈ 33.5 µM)

## CN[C@H](CC(C)C)C(=O)N[C@H]1C(=O)N[C@@H](CC(N)=O)C(=O)N[C@H]2C(=O)N[C@H]3C(=O)N[C@H](C(=O)N[C@H](C(=O)O)c4cc(O)cc(O)c4-c4cc3ccc4O)[C@H](O)c3ccc(c(Cl)c3)Oc3cc2cc(c3O[C@@H]2O[C@H](CO)[C@@H](O)[C@H](O)[C@H]2O[C@H]2C[C@](C)(N)[C@H](O)[C@H](C)O2)Oc2ccc(cc2Cl)[C@H]1O [vancomycin, reference compound]
[1]
  effect of iron restriction medium conditions on MIC: not affected

## CC1(C)S[C@@H]2[C@H](NC(=O)[C@H](N)c3ccccc3)C(=O)N2[C@H]1C(=O)O [ampicillin, reference compound]
[1]; [21]
  effect of iron restriction medium conditions on MIC: not affected

## O=C(O)CCC1=C(CC(=O)O)c2cc3[nH]c(cc4nc(cc5[nH]c(cc1n2)c(CC(=O)O)c5CCC(=O)O)C(CC(=O)O)=C4CCC(=O)O)c(CC(=O)O)c3CCC(=O)O [UP-1, uroporphyrin I, reference compound]
[5]
  MBC: 10 µg/mL (≈ 12 µM)
[2]
  HemR requirement of bacterial sensitivity: did not require expression of HemR
[2]; Yersinia enterocolitica
  MIC: 10 µg/mL (≈ 12 µM)
[3]
  antibacterial activity: largely inactive
[3]; [11]
  MIC: 20 µg/mL (≈ 24.1 µM)
[6]
  MBC: 20 µg/mL (≈ 24.1 µM)
[4]
  antibacterial activity: largely inactive
[4]; [12]
  MIC: 20 µg/mL (≈ 24.1 µM)
[7]
  Minimal bactericidal concentration (MBC): 5/10

## CCC1=C(CC)c2cc3[nH]c(cc4nc(cc5[nH]c(cc1n2)c(CC)c5CC)C(CC)=C4CC)c(CC)c3CC [OEP, octaethylporphine, reference compound]
[5]
  MBC: 10 µg/mL (≈ 18.7 µM)
[2]; Yersinia enterocolitica
  MIC: 5 µg/mL (≈ 9.35 µM)
[3]; [11]
  MIC: 10 µg/mL (≈ 18.7 µM)
[6]
  Minimal bactericidal concentration (MBC): 5/10
[4]; [12]
  MIC: 10 µg/mL (≈ 18.7 µM)
[7]
  MBC: 5 µg/mL (≈ 9.35 µM)

## O=C(N[C@H](CO)[C@H](O)c1ccc([N+](=O)[O-])cc1)C(Cl)Cl [chloramphenicol, reference compound]
[1]; [21]
  effect of iron restriction medium conditions on MIC: not affected

## C=CC1=C(C)c2cc3[n-]c(cc4[n-]c(cc5nc(cc1n2)C(C)=C5C=C)c(C)c4CCC(=O)[O-])c(CCC(=O)[O-])c3C.[H+].[H+].[Ni+2] [Ni-PPIX]
[2]
  Minimal inhibitory concentration (MIC): > 40
[3]
  Minimal inhibitory concentration (MIC): 20 µg/mL
[4]
  Minimal inhibitory concentration (MIC): > 40 µg/mL
